For 15 molecules, IC50 results are on record in US20100105651A1, “ANTAGONISTS OF SNS SODIUM CHANNELS” (priority 2005, published 2010).

T1 sequence (Q9Y5Y9 whole entry): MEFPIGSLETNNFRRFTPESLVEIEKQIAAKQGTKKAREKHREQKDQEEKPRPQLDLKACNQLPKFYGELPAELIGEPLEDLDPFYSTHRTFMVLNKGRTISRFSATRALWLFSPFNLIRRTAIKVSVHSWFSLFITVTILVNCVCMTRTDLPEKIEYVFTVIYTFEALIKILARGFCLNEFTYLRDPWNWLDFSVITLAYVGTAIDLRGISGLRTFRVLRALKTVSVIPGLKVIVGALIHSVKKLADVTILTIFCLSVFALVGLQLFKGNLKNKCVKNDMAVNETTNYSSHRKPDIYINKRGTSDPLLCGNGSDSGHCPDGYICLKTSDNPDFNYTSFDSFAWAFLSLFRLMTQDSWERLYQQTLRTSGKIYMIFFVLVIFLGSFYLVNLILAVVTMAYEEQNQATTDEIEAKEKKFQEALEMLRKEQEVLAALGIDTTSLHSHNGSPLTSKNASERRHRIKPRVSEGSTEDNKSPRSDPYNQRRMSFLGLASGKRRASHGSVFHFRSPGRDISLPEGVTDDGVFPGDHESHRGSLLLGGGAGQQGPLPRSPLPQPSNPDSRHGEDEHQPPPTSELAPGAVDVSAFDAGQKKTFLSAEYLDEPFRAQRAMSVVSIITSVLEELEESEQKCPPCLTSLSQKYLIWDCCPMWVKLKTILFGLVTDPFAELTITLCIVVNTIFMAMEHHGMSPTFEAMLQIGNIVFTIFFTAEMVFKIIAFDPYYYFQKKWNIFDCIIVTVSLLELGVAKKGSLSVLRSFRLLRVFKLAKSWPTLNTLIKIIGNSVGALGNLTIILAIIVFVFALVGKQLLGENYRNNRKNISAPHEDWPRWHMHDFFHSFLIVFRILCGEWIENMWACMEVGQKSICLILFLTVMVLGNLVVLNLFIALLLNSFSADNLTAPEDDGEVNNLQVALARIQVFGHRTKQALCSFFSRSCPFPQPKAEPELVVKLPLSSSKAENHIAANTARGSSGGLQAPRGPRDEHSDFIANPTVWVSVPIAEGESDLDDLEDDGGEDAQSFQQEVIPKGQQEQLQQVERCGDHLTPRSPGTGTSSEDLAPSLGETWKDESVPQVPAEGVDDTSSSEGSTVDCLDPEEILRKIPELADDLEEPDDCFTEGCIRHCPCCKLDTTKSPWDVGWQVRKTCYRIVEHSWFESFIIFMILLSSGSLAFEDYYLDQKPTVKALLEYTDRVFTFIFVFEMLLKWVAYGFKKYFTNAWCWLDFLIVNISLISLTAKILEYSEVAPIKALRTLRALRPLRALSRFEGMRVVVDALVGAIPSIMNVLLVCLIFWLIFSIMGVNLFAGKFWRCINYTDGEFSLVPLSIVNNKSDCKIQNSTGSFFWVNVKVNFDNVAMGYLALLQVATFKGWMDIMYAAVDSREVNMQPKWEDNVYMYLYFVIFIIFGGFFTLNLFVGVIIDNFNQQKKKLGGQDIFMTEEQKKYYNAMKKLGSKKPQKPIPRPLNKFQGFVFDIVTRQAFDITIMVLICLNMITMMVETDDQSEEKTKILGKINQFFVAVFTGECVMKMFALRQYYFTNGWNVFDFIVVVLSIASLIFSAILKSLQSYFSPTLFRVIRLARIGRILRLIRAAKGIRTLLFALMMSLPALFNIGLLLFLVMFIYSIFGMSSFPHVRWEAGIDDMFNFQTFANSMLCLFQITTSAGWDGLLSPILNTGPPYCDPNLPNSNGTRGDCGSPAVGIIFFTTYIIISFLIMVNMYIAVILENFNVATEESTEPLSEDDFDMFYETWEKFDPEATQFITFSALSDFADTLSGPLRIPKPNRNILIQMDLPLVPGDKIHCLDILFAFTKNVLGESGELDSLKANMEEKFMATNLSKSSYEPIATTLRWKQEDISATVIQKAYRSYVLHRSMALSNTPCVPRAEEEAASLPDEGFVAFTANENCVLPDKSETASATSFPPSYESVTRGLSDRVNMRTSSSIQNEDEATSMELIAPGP

This experiment addresses T1, human NaV1.8 (hNaV1.8) ion channel (Homo sapiens, UniProt Q9Y5Y9).
T1 construct: expressed in transfected cells
The experiment can be described thus: Inhibition of Human NaV1.8 stably expressed in SH-SY-5Y cells (membrane potential dye fluorescence assay). As to conditions: SH-SY-5Y cells stably expressing hNaV1.8; FLIPR membrane potential dye; 10 μM pyrethroid, 250 nM TTX; test range 100 μM-0.05 μM; read-out: hNav1.8 IC50. The experiment is classed as cell-based.
`O=C(Nc1ccc(Oc2ccccc2)cc1)N1CC(NCc2c(F)cccc2F)C1` [Example 128, 3-(2,6-Difluoro-benzylamino)-azetidine-1-carboxylic acid (4-phenoxy-phenyl)-amide]: the IC50 was determined as 830 nM.

Turning to `C=CCOc1ccccc1CNC1CN(C(=O)Nc2ccc(OCc3ccccc3)cc2)C1` [Example 51, 3-(2-Allyloxy-benzylamino)-azetidine-1-carboxylic acid (4-benzyloxy-phenyl)-amide], the half-inhibitory concentration (IC50) was found to be 340 nM.

For `CN(C(=O)N1CC(NC2CCc3cc(F)ccc32)C1)c1ccc(Oc2ccc(F)cc2)cc1` (stereo not drawn) [Example 20, 3-(5-Fluoro-indan-1-ylamino)-azetidine-1-carboxylic acid [4-(4-fluoro-phenoxy)-phenyl]-methyl-amide], the IC50 was determined as 700 nM.

As for `CC(NC1CN(C(=O)Nc2ccc(Oc3ccc(F)cc3)cc2)C1)c1ccc(C#N)cc1` (stereo not drawn) [Example 127, 3-[1-(4-Cyano-phenyl)-ethylamino]-azetidine-1-carboxylic acid [4-(4-fluoro-phenoxy)-phenyl]-amide], the half-maximal inhibitory concentration (IC50) came out at 2110 nM.

With `Cc1ccccc1C(C)NC1CN(C(=O)Nc2ccc(Oc3ccc(F)cc3)cc2)C1` (stereo not drawn) [Example 108, 3-(1-o-Tolyl-ethylamino)-azetidine-1-carboxylic acid [4-(4-fluoro-phenoxy)-phenyl]-amide], the concentration for half-maximal inhibition (IC50) stood at 270 nM.

Turning to `CC(NC1CN(C(=O)Nc2cccc(Oc3ccccc3)c2)C1)c1ccccc1Cl` (stereo not drawn) [Example 102, 3-[1-(2-Chloro-phenyl)-ethylamino]-azetidine-1-carboxylic acid (3-phenoxy-phenyl)-amide], the IC50 worked out at 800 nM.

As to `O=C(Nc1ccc(Oc2cccc(F)c2)cc1)N1CC(NC2CCc3cc(F)ccc32)C1` (stereo not drawn) [Example 13, 3-(5-Fluoro-indan-1-ylamino)-azetidine-1-carboxylic acid [4-(3-fluoro-phenoxy)-phenyl]-amide], the IC50 worked out at 310 nM.

As to `O=C(Nc1ccc(Oc2ccc(F)cc2)c(F)c1)N1CC(NC2CCc3cc(Br)ccc32)C1` (stereo not drawn) [Example 16, 3-(5-Bromo-indan-1-ylamino)-azetidine-1-carboxylic acid [3-fluoro-4-(4-fluoro-phenoxy)-phenyl]-amide], the IC50 came out at 1720 nM.

Regarding `O=C(Nc1ccc(C(F)(F)F)cc1)N1CC(NC2CCCc3ccccc32)C1` (stereo not drawn) [Example 36, 3-(1,2,3,4-Tetrahydro-naphthalen-1-ylamino)-azetidine-1-carboxylic acid (4-trifluoromethyl-phenyl)-amide], the 50% inhibitory concentration (IC50) came to 2770 nM.

For `Cc1ccc(C(C)NC2CN(C(=O)Nc3ccc(C(F)(F)F)cc3)C2)cc1` (stereo not drawn) [Example 122, 3-(1-p-Tolyl-ethylamino)-azetidine-1-carboxylic acid (4-trifluoromethyl-phenyl)-amide], the 50% inhibitory concentration (IC50) was 1700 nM.

For `Cc1ccc(C(C)NC2CN(C(=O)Nc3ccc(Oc4ccccc4)cc3)C2)c(C)c1` (stereo not drawn) [Example 101, 3-[1-(2,4-Dimethyl-phenyl)-ethylamino]-azetidine-1-carboxylic acid (4-phenoxy-phenyl)-amide], the IC50 was 290 nM.

Turning to `CC(NC1CN(C(=O)Nc2cccc(C(F)(F)F)c2)C1)c1ccc(F)cc1` (stereo not drawn) [Example 73, 3-[1-(4-Fluoro-phenyl)-ethylamino]-azetidine-1-carboxylic acid (3-trifluoromethyl-phenyl)-amide], the IC50 was found to be 2560 nM.

For the molecule `CC1Cc2ccccc2C1NC1CN(C(=O)Nc2ccc(Oc3ccccc3)cc2)C1` (stereo not drawn) [Example 25, 3-(2-Methyl-indan-1-ylamino)-azetidine-1-carboxylic acid (4-phenoxy-phenyl)-amide], the 50% inhibitory concentration (IC50) is 840 nM.

On to `Cc1ccccc1C(C)N(C)C1CN(C(=O)Nc2cccc(C(F)(F)F)c2)C1` (stereo not drawn) [Example 96, 3-[Methyl-(1-o-tolyl-ethyl)-amino]-azetidine-1-carboxylic acid (3-trifluoromethyl-phenyl)-amide], for which the IC50 was found to be 3020 nM.

As to `CN(C1CN(C(=O)Nc2ccc(Oc3ccccc3)cc2)C1)C(C)(C)c1ccccc1` [Example 99, 3-[Methyl-(1-methyl-1-phenyl-ethyl)-amino]-azetidine-1-carboxylic acid (4-phenoxy-phenyl)-amide], the IC50 was 630 nM.
